Type in all cases: biochemical
Assay [1] has as its target T1, GASC1 (KDM4C, JMJD2C) (Homo sapiens, UniProt Q9H3R0).
T1 construct: 1-349; host or cells: E. coli
T1 sequence (Q9H3R0 1-349): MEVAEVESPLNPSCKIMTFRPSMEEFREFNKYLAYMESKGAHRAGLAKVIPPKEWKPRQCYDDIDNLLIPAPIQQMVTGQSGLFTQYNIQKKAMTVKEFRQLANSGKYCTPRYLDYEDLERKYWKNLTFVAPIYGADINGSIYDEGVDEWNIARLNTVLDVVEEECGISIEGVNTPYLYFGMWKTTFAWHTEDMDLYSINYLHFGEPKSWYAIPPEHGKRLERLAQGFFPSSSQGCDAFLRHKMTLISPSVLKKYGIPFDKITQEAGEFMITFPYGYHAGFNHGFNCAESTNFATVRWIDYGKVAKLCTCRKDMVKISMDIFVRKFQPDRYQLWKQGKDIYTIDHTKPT
Description: Histone lysine demethylase AlphaLISA assay, GASC1. Particulars: substrate BK9M3. In a few lines: (§1)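 Enzyme was preincubated 10 min, then 10 min with compounds in 3% DMSO buffer before substrate addition; reaction ran at room temperature. AlphaLISA acceptor beads (60 min, dark) and streptavidin donor beads were added before reading for IC50.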
(Bead proximity is the source of the signal in Alpha formats.)

Assay [2] concerns the target T2, FBXL10 (KDM2B) (Homo sapiens, UniProt Q8NHM5).
T2 construct: 1-650; purchased BPS, Bioscience, US; host or cells: Bac (baculovirus)
T2 sequence (Q8NHM5 1-650): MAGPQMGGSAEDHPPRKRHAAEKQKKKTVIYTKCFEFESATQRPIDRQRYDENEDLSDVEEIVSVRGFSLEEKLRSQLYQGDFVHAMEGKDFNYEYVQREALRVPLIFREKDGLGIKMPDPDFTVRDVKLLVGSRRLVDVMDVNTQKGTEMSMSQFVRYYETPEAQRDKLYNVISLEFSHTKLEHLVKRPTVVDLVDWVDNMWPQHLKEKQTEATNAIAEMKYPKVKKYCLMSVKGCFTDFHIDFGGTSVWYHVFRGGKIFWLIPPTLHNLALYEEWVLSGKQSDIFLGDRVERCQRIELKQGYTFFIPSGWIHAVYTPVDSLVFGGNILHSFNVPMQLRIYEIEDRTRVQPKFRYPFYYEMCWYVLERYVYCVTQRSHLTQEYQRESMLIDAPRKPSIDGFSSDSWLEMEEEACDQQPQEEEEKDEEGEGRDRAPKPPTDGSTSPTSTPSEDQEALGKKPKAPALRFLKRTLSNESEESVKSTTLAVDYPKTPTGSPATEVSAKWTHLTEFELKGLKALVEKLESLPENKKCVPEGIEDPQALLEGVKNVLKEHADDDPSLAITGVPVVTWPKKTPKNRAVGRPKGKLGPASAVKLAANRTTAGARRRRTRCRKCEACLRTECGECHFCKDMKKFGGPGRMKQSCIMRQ
Description: Histone lysine demethylase AlphaLISA assay, FBXL10. The following applies: substrate BH3K36M2. Here is the method:
(§2) Example 2: Histone Lysine Demethylase AlphaLISA Assays for IC50 Value Determination
(§3) Assays are performed analogously to the protocol described by Perkin Elmer (Roy et al. Perkin Elmer Technical Note: AlphaLISA #12, April 2011).
(§4) Enzymes are dissolved in enzyme buffer and incubated for 10 min before 5 μL is added to 5 μL 3% DMSO solutions of compounds in enzyme buffer. Incubated for another 10 minutes, before 5 μL substrate solution is added and the reaction mixture is incubated at room temperature for the given period. 10 μL acceptor beads, suspended at given dilutions in Epigenetic Buffer (Perkin Elmer AL008) from stock, are added and the suspension is incubated 60 minutes in the dark at room temperature, before 10 μL suspension (at the given dilutions in Epigenetic Buffer) of streptavidin donor beads (Perkin Elmer 6760002) in Epigenetic Buffer is added. After incubation at room temperature in the dark the plates are read. Reaction conditions are seen in Table 2b.

The target in assay [3] is T3, JMJD1B (KDM3B) (Homo sapiens, UniProt Q7LBC6).
T3 construct: 842-1761; host or cells: Bac (baculovirus)
T3 sequence (Q7LBC6 842-1761): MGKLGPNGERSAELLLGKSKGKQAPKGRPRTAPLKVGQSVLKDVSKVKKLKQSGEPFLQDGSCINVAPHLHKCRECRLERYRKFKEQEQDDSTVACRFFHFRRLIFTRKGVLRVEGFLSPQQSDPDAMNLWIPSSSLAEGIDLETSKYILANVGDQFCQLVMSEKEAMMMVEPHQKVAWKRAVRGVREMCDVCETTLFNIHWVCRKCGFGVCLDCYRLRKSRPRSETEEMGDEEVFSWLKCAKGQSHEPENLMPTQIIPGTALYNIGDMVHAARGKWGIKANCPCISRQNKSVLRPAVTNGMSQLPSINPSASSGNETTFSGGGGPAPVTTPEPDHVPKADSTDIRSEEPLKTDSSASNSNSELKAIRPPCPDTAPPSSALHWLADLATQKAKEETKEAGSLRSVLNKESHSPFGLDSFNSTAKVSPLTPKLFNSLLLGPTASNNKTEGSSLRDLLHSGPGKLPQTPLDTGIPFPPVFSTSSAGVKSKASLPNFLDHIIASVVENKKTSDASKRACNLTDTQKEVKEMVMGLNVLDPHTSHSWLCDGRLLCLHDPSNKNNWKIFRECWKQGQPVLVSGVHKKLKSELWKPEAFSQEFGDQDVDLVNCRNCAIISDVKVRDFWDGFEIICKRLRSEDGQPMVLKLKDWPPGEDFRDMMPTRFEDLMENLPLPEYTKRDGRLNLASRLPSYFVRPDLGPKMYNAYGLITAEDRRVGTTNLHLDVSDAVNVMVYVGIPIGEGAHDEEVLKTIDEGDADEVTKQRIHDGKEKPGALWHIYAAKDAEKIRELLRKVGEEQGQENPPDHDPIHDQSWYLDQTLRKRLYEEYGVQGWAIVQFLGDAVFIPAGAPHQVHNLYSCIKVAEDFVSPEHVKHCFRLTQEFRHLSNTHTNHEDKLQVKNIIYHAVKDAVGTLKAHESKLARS
Description: Histone lysine demethylase AlphaLISA assay, JMJD1B. The following applies: substrate BK9M2. The method, then: as §2, §3, §4

In assay [4] the target is T4, JMJD2A (KDM4A) (Homo sapiens, UniProt O75164).
T4 construct: 1-350; purchased BPS, Bioscience, US; host or cells: E. coli
T4 sequence (O75164 1-350): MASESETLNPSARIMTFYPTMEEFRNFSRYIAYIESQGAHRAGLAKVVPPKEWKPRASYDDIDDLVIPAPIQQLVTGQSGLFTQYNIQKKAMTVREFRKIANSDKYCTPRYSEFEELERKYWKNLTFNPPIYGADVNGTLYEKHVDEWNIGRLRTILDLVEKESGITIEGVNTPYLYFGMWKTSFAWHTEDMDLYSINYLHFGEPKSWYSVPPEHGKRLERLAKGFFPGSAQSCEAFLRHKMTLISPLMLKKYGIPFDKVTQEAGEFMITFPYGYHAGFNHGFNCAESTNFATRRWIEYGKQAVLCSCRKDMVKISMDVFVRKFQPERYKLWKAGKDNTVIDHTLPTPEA
Kind of assay: Histone lysine demethylase AlphaLISA assay, JMJD2A. Particulars: substrate BK9M3. Here is the method:
as §2, §3, §4

In assay [5] the target is T5, JMJD2B (KDM4B) (Homo sapiens, UniProt O94953).
T5 construct: 2-500; purchased BPS; host or cells: Bac (baculovirus)
T5 sequence (O94953 2-500): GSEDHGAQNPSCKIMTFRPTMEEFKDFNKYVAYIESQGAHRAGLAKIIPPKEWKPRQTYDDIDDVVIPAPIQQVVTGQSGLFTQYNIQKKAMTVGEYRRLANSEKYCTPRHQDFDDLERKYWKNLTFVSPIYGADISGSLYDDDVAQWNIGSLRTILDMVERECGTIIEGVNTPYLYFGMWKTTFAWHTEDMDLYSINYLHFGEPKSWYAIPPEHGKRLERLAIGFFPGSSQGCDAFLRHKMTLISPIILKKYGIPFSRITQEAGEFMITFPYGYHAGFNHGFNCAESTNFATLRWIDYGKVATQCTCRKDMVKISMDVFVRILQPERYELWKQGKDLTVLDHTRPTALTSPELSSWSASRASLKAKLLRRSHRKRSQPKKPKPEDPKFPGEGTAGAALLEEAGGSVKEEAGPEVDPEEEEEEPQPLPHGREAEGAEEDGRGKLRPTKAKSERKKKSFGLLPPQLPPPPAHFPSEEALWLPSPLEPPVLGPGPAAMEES
Description: Histone lysine demethylase AlphaLISA assay, JMJD2B. Particulars: substrate BK9M3, read-out: JMUD2B IC50. The method, then:
as §2, §3, §4

Assay [6] concerns the target T6, JMJD3 (KDM6B) (Homo sapiens, UniProt O15054).
T6 construct: 1043-end; purchased BPS; host or cells: Bac (baculovirus)
Kind of assay: Histone lysine demethylase AlphaLISA assay, JMJD3. Particulars: substrate BK27M3. The method, then: as §2, §3, §4

The target of assay [7] is T7, PHF8 (KDM7) (Homo sapiens, UniProt Q9UPP1).
T7 construct: KDM7 (PHF8); BRIC; 1-1322; Bac
Description: Histone lysine demethylase AlphaLISA assay, PHF8. Particulars: substrate BK9M2. The method, then: as §2, §3, §4

Assay [8] addresses T8, UTX (KDM6A) (Homo sapiens, UniProt O15550).
T8 construct: 919-1401; host or cells: E. coli
Description: Histone lysine demethylase AlphaLISA assay, UTX. The following applies: substrate BK27M3. In a few lines: as §1

T7 sequence (Q9UPP1 37-477 limits assumed): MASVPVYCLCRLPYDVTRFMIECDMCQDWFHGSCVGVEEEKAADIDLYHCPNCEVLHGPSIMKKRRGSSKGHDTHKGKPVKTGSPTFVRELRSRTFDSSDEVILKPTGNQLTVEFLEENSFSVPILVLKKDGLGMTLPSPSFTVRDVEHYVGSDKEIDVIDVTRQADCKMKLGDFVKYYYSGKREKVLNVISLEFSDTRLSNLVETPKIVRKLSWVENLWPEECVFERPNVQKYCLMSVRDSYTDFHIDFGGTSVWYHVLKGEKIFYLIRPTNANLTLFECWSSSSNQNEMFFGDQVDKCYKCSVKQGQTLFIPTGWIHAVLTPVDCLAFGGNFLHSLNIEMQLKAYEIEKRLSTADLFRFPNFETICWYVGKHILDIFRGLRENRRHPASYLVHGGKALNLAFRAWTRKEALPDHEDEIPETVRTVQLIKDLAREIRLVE
T6 sequence (O15054 1043-1682 isoform O15054-1 limits assumed): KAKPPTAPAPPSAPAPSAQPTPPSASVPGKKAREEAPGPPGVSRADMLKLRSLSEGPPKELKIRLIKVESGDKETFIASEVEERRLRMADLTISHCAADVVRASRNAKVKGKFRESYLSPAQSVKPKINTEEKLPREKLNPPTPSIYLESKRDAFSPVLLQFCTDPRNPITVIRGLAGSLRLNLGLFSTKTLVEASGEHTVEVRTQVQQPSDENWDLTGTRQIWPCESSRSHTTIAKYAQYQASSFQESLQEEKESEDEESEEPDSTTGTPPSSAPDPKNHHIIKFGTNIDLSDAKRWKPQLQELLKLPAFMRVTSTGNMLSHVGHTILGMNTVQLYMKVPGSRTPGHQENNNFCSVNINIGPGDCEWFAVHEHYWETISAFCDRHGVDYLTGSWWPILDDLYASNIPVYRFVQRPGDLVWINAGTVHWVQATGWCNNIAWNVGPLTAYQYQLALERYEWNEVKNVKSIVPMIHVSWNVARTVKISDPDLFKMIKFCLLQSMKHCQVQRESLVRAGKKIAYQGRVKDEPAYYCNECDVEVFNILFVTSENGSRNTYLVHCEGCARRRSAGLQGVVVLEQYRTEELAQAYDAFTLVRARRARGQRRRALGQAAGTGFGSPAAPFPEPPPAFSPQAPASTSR
T8 sequence (O15550 919-1401): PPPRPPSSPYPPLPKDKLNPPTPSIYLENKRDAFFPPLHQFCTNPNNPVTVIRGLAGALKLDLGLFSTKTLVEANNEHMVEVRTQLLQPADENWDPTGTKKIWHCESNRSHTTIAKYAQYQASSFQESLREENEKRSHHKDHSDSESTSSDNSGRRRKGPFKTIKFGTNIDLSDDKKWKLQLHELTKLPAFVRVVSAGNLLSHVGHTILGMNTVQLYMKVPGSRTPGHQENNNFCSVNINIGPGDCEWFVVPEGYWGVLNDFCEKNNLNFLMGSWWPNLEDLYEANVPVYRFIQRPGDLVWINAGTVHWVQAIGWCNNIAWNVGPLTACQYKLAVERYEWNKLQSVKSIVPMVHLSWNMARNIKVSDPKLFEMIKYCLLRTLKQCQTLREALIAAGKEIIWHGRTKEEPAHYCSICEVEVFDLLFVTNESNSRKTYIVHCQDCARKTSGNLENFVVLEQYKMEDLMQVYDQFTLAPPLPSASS

With `O=C(O)c1ccnc(CN[C@@H]2CCN(CCCc3ccccc3)C2)c1` [#28, 2-({[(3R)-1-(3-phenylpropyl)pyrrolidin-3-yl]amino}methyl)pyridine-4-carboxylic acid], the IC50 is not below 1 µM in assay [1]; not below 1 µM in assay [2]; not below 1 µM in assay [3]; 0.1 to 1 µM in assay [4]; 0.1 to 1 µM in assay [5]; not below 1 µM in assay [6]. In addition, the IC50 in assay [7] and in assay [8] was not below 1 µM each time.

By IC50 is commonly meant the point on the concentration scale where inhibition reaches its midpoint.
